Assay results taken from patent US20030224038A1, “Cross-linkable phosphonate-containing supramolecular complexes and their use for delivery of therapeutic and diagnostic agents” (priority 2002, published 2003).

What was measured:
[1] = TEM size of n-dodecanephosphonic acid aggregates, metal-free and metallated with iron salts; type: physicochemical; conditions: metal-free aggregates, 3×10^−4 molar in 5 mM MES
Procedure: (§1) An aggregate was prepared using n-dodecanephosphonic acid. Specifically, a 3×10^−4 molar (on average) solution of n-dodecanephosphonic acid was used, which was prepared by adding 17 mg dodecanephosphonic acid to 250 mL of a 5 mM solution of morpholinoethanesulfonic acid (MES) buffer solution. This solution was heated in a boiling water bath for 40-60 minutes. The solution was then cooled and allowed to sit undisturbed for 3 days (following Shulz' procedure (21)). This preparation was used to produce the desired micelles and the reported critical micelle concentration (CMC) was independently confirmed through measurement of the surface tension by means of a Wilhelmy Plate Balance (22). […] It has also been determined that these aggregates are stable over the pH range of 4-6, with minimal structural changes.
The choice of biologically compatible metal ion used to bind to the micelle exterior directly influences the size and the shape of the resulting aggregates. Iron (III) salts are preferred because they are relatively inexpensive, readily available in several simple forms and known to be biologically compatible. However, other metal ions may be used if desired, including, without limitation, Zr (IV), Mg(II), Ca(II), Co(II) and Zn(II) salts. […]

[2] = pH stability of n-dodecanephosphonic acid aggregates; type: physicochemical; conditions: minimal structural changes
Procedure: as §1

[3] = reported value, independently confirmed by surface tension measurement; cited from earlier work
[4] = TEM imaging of negatively stained dodeca-5,7-diynoyl phosphonic acid vesicles (size); type: physicochemical
Procedure: Twice the value of the CMC determined for n-dodecanephosphonic acid (2.94×10^−4 M)^4 was used to assure aggregate formation in these experiments due to the limited amount of the final product. All samples were prepared in the manner described by Schulz, supra, using solutions buffered to a pH of 5.5 with 5 mM MES.
Samples prepared in the above manner were imaged using TEM by negatively staining the samples with 1% uranyl acetate. FIG. 2 is a picture of unpolymerized vesicles of dodeca-5,7-diynoyl phosphonic acid within four days of their initial preparation. It appears from this micrograph that the aggregates are small and relatively spherical compared to the fully saturated aggregates of n-dodecanephosphonic acid prepared as described hereinbelow. The average size of these vesicles is roughly 50 nm in diameter with the sizes of individual aggregates ranging from 4 nm to over 400 nm. […] This behavior was only observed with freshly prepared aggregates prior to their exposure to light. One explanation for this behavior is that it represents an artifact of drying the sample in the presence of the metal stain used to visualize it.
FIG. 3 is a micrograph of the same sample after one week. It is noteworthy that the vesicles are still spherical though they now appear to be smaller and have a more irregular exterior surface. […] Moreover, there was no evidence of the rolled cylinders previously imaged in the fresh aggregate solutions.

[5] = Dissolution in buffered aqueous solution; type: physicochemical

CCCCCCCCCCCCP(=O)(O)O [n-dodecanephosphonic acid]
average diameter of aggregates [1]: 20-120 nm
pH range over which aggregates are stable [2]: 4-6
critical micelle concentration (CMC) [3]: 294 µM

CCCCC#CC#CCCCC(=O)P(=O)(O)O [dodeca-5,7-diynoyl phosphonic acid, Dodeca-5,7-diynoyl phosphonic acid]
average size of aggregates (diameter) ([4]; same sample after one week): ~50 nm
largest vesicles present in the sample ([4]; same sample after one week): ≤ 100 nm
average size of vesicles (diameter) ([4]; unpolymerized vesicles, within four days of preparation, pH 5.5, 5 mM MES): roughly 50 nm
solubility in buffered aqueous solutions [5]: readily dissolves in buffered aqueous solutions to form vesicles
